In publication PMC10454726 (International Journal of Molecular Sciences, 2023):

How the values were obtained:
[1] = cited from earlier work
[2] = test system: streptozotocin-induced diabetic rats; assay: Oral glucose tolerance test in streptozotocin-induced diabetic rats; type: in vivo, Wistar rat; design: AUC of the OGTT: unit not given here; settings: for glucose blood levels in OGTT compared to untreated animals: after 14 days of administration, ANOVA/Bonferroni
Method: (§1) After a week of acclimation, 35 male Wistar rats were given a single intraperitoneal dose of STZ (Sigma Chemical Co. Toluca, Estado de México, Mexico) at a dosage of 45 mg/kg of body weight, after fasting for 12 h overnight with free access to water. To prevent initial drug-induced hypoglycemia mortality, these animals were given a 10% sucrose solution 24 h after administration. STZ was dissolved in 0.1 M of sodium citrate buffer (pH 4.5) and administered in a final volume of 5 mL/kg. A week after STZ injection, diabetes in streptozotocin rats was confirmed by measuring fasting blood glucose (by glucose oxidase method). Animals with a blood glucose (tail vein) above 126 mg/dL were considered diabetic and used for the experiment to create groups 2, 3, 4, 5, 6, and 7 [1, 13]. Blood glucose levels were measured using a glucometer (Accu-Chek Active, Roche, Mannheim, Germany) and reactive strips (Accu-Chek Active Glucose test strips, Roche). The presence of hyperglycemia and insulin level confirmed a model very similar to T2D in humans. For the pharmacological study, the final number of animals was 35 male rats, with 3 rats being sacrificed during the treatment stage. One was administered with FC-114 and two with acarbose. The first rat was damaged during oral glucose administration in the OGTT at week 5, and the other rats had gastrointestinal complications in week 7.
(§2) The diabetic animals in group 2 (untreated) were given 4% v/v aqueous EtOH solution (vehicle of treatments) in a volume of 6.5 mL/kg body weight. The other groups (3–7) received different treatments for 14 days (weeks 5 to 7). […] All of the treatments were at equimolar doses of PIO and adjusted to the weekly weight of each rat. […] The commercial PIO tablet (30 mg) was crushed in 7.5 mL of vehicle and given to each animal in 4.0 mg/mL of suspension. The FC-114 and FC-122 suspensions were created at 6.2 and 6.0 mg/mL, respectively. The commercial acarbose tablet (50 mg) was crushed in 7.5 mL of the vehicle and given to each animal in a suspension of 6.6 mg/mL. Each suspension was used within 2 days of its preparation, and the administration volume was near to 2.5 mL for each rat.
The OGTT was carried out in weeks 3, 4, 5, 6, and 7. Prior to the OGTT, all animal groups fasted overnight for eight hours with free access to water. Each rat was weighed and then received a 2 g/kg glucose overload orally and blood samples were taken from the tail vein [13, 97]. Glucose levels were measured using a glucometer (Accu-Chek Active, Roche, Mannheim, Germany) at 0, 30, 60, 90, 120, and 180 min after glucose administration. The AUC of the OGTT was calculated using the blood glucose concentration over time and the GraphPad Prism 8.0.1 software package (GraphPad Software; Science Inc., San Diego, CA, USA) was used to compare the effectiveness of the treatments.

[3] = molecular target: α-glucosidase from Rominococcus obeum (Blautia obeum, UniProt A5ZY13); assay: Enzymatic kinetics of α-glucosidase inhibition (pNPG substrate); type: biochemical
Method: The kinetic studies for PTP1B and α-glucosidase were carried out under the same conditions described in the references.

[4] = test system: streptozotocin-induced diabetic rats; assay: Weekly fasting glucose in streptozotocin-induced diabetic rats; type: in vivo, Wistar rat; settings: after 7 and 14 days of treatment (weeks 6 and 7)
Method: as §1, §2

humans = settings: cited from earlier work
[5] = test system: streptozotocin-induced diabetic rats; assay: Animal weight, food and water consumption in streptozotocin-induced diabetic rats; type: in vivo, Wistar rat; settings: 14 days of treatment, weeks 5 to 7
Method: Six female (three for each compound: FC-114 and FC-122) (220 ± 10 g, for the acute toxicity assay) and forty male (215 ± 20 g, for the pharmacologic study) albino Wistar rats were acquired from the Isolation and Animal Facility Unit, Facultad de Estudios Superiores Cuautitlán (FESC), Universidad Nacional Autónoma de México (UNAM). They were kept in standard polypropylene boxes under controlled temperature (24 ± 4 °C) on a 12 h light/dark cycle and provided conventional food (formula 5001, Rat Chow) and purified water ad libitum. […] At the end of the experiment, the animals were taken to the humanitarian endpoint by the intraperitoneal (ip) administration of 75 mg/kg of sodium pentobarbital to perform a necropsy in the bioterium of FESC, UNAM. During the necropsy, blood serum was extracted to quantify glucose, triacylglycerides, cholesterol, and insulin. The study was conducted based on the guidelines of the Declaration of Helsinki and approved by the Institutional Review Board: Internal Committee for the Care and Use of Experimentation Animals (CICUAE, according to the initials in Spanish, C23_02 on March 2023) of the FESC UNAM (Mexico). It complies with the Mexican norm for this matter (NOM-062-ZOO-1999, Technical Specifications for the Production, Care, and Use of Laboratory Animals, SAGARPA), as well as the Guide for the Care and Use of Laboratory Animals of the National Research Council and National Institutes of Health (NIH Publications No. 8023, revised 1978).
as §1, §2

[6] = test system: streptozotocin-induced diabetic rats; settings: cited from earlier work
[7] = Cytotoxic effect on Human Foreskin fibroblasts (SRB); type: cell-based; settings: HFF-1 human foreskin fibroblasts, HFF-1 cells
Method: However, at high concentrations, they can be harmful to cells. For humans, doses less than 100 mg/day are considered safe. […] Therefore, we conducted cytotoxicity assays on Human Foreskin fibroblasts (HFF-1) and an AOT on female Wistar rats to assess their safety.
In a 96-well plate, 7000 cells per well of Human Foreskin fibroblasts (HFF-1) were cultured. […] Untreated cells were also included as a negative control. At the end of the incubation period, the cell contents were precipitated with 50 µL of a 50% aqueous solution of trichloroacetic acid (TCA) at 4 °C for 1 h. The supernatant was discarded and washed 5 times with distilled water. Afterward, the plates were allowed to dry at room temperature. The cell contents were incubated with 100 µL of a 0.04% sulforhodamine B (SRB) solution for 1 h at room temperature. The excess SRB was removed by washing with a 1% aqueous acetic acid solution. […] With the data obtained, the viability of treated cells was calculated by comparing the control without treatment. CC50 value was determined by employing BioStat Pro 5.9.8 software (AnalystSoft Inc., Brandon, FL, USA).

[8] = cited from earlier work; remark: listed apart in the source
[9] = Week 5 (day 1 of treatment), oral, glibenclamide 0.6, FC-114 51.3, FC-122 49.1, PIO 30, acarbose 54.3 mg/kg/day
[10] = Week 6 (day 7 of treatment), same doses
[11] = Week 7 (day 14 of treatment), same doses

α-glucosidase from Rominococcus obeum, sequence (A5ZY13 entry or part of it): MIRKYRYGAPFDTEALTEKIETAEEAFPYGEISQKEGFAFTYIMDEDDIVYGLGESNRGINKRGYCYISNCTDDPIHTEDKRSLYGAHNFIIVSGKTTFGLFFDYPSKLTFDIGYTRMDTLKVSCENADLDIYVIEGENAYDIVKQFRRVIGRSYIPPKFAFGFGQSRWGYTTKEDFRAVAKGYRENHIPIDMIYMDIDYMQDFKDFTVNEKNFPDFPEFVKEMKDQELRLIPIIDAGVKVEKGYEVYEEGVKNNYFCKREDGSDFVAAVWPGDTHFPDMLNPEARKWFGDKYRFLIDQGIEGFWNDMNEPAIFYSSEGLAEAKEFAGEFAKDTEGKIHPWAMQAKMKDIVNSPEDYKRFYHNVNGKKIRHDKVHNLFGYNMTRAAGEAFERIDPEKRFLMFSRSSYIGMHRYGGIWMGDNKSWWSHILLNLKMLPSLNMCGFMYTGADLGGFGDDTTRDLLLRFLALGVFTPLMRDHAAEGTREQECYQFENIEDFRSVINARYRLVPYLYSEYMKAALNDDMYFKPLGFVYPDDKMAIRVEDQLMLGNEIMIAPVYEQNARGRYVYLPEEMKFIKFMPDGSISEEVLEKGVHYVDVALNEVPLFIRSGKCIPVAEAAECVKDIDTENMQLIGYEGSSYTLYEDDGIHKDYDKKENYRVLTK

| Compound | effective doses to cause decreases in blood glucose [1] | AUC of the OGTT [2, 9] | AUC of the OGTT [2, 10] | AUC of the OGTT [2, 11] | fasting glucose levels [4] | glucose blood levels in OGTT compared to untreated animals [2] | also measured |
| --- | --- | --- | --- | --- | --- | --- | --- |
| C[C@H]1O[C@H](O[C@H]2[C@H](O)[C@@H](O)[C@@H](O[C@H]3[C@H](O)[C@@H](O)C(O)O[C@@H]3CO)O[C@@H]2CO)[C@H](O)[C@@H](O)[C@@H]1N[C@H]1C=C(CO)[C@@H](O)[C@H](O)[C@H]1O (stereo partly shown) [acarbose] | 75 to 300 mg/kg | 81,327 | 81,507 | 71,240 | downward trend |  | Inhibition type (α-glucosidase) ([3]; Lineweaver-Burk plots): competitive; Ki ([3]; substrate pNPG, Lineweaver-Burk): 26.8 µM |
| CC1(C)[C@@H](O[C@H]2O[C@H](C(=O)O)[C@@H](O)[C@H](O)[C@H]2O[C@@H]2O[C@H](C(=O)O)[C@@H](O)[C@H](O)[C@H]2O)CC[C@]2(C)[C@H]3C(=O)C=C4[C@@H]5C[C@@](C)(C(=O)O)CC[C@]5(C)CC[C@@]4(C)[C@]3(C)CC[C@@H]12 [GL, glycyrrhizic acid] |  |  |  |  |  |  | dose considered safe (humans): less than 100 mg/day |
| COc1ccc(Cl)cc1C(=O)NCCc1ccc(S(=O)(=O)NC(=O)NC2CCCCC2)cc1 [glibenclamide] |  | 62,022 | 67,311 | 50,874 | downward trend | ranked second |  |
| CCc1ccc(CCOc2ccc(CC3SC(=O)NC3=O)cc2)nc1 (stereo not shown) [PIO, pioglitazone] | 15 to 45 mg/kg | 49,677 | 43,584 | 40,044 |  | significantly improved | animal weight compared to the untreated group (T2D) [5]: difference in weight; effectiveness in lowering blood glucose during the glucose tolerance curve (AUC) ([2]; week 7): most effective |
| CC1(C)[C@@H](O)CC[C@]2(C)[C@H]3C(=O)C=C4[C@@H]5C[C@@](C)(C(=O)O)CC[C@]5(C)CC[C@@]4(C)[C@]3(C)CC[C@@H]12 [GA, glycyrrhetinic acid] |  |  |  |  |  |  | insulin levels ([6]; 100 mg/kg): increase in insulin levels; plasma TAG, total cholesterol, HDL, VLDL, LDL ([6]; 100 mg/kg): restored normal levels; blood glucose and insulin levels ([6]; oral 100 mg/kg, compared with glibenclamide 600 μg/kg): improved blood glucose and insulin levels; CC50 at 48 h [7]: 62 ± 2 µM; LD50 [8]: 610 mg/kg |
